Assay [1] has as its target T1, ALK2R206H (mutant ALK2, N-terminally tagged with GST) (Homo sapiens, UniProt Q04771, R206H).
T1 construct: purchased Carna Bioscience or ThermoFisher 09-148 or PV6232
T1 sequence (Q04771 21-509 R206H): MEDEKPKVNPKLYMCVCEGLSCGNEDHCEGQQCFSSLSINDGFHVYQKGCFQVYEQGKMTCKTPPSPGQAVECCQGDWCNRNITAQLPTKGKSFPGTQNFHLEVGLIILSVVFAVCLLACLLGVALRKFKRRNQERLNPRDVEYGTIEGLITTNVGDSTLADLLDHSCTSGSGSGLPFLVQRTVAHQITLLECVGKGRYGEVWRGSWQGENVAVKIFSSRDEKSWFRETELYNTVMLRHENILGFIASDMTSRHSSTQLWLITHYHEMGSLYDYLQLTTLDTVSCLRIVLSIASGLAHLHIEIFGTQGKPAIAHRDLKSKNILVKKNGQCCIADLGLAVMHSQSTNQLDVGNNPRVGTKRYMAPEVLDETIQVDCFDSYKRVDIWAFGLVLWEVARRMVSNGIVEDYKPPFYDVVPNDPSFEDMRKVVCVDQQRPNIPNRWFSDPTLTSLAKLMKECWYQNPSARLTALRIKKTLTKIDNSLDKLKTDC
Kind of assay: ALK binding assay (LANTHASCREEN TR-FRET competitive binding, displacement of Kinase Tracer 178). The settings on record: read-out: Binding Assay (IC50 class). A digest of the protocol:
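Competitive displacement of Kinase Tracer 178 (50 nM) from N-terminally GST-tagged mutant ALK2 R206H (2-5 nM) by compound, detected by TR-FRET with Eu-anti-GST antibody (4-10 nM). 30 min room temperature incubation, 1% DMSO final; normalized signal fitted to 4-parameter log dose response for IC50.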

The next assay deals with T2, human ALK2 R206H (Homo sapiens, UniProt Q04771, R206H).
T2 construct: expressed in transfected cells; host or cells: HEK293 (ATCC CRL1573), lentivirus transduction, blasticidin selection
T2 sequence (Q04771 21-509 R206H): T1 sequence (Q04771 21-509 R206H)
The assay is described as follows: Cell-based ALK2-R206H cell activity assay (Smad1-Ser463/Ser465 phosphorylation by AlphaLISA in HEK293-ALK2-R206H cells). To be noted: phospho-Smad1 AlphaLISA, read-out: Cell Line (Cell Assay, IC50 class). As to the method:
Example 11. Cell-Based ALK2-R206H Cell Activity Assay
A HEK293 (ATCC, Cat No. CRL1573) based stable cell line expressing human ALK2 R206H cDNA (synthesized by GeneScript, Piscataway, N.J.) and a FLAG tag at the C-terminus was generated by lentivirus transduction and subsequent blasticidin (Life Technologies, Cat No. A1113902) selection at 10 μg/ml for >2 wks. This cell line was named HEK293-ALK2-R206H.
B. Measurement of Smad1-Ser463/Ser465 Phosphorylation by AlphaLISA
HEK293-ALK2-R206H cells were grown, harvested, and then resuspended in serum-free, phenol red-free DMEM high glucose media (Life Technologies, Cat No. 31053). The media also contained 50 units/ml penicillin and 50 μg/ml streptomycin (Life Technologies, Cat. No. 15070-063). HEK293-ALK2-R206H cells were then plated in white opaque 384-wells microplates (2×10^4/well) (OptiPlate-384, PerkinElmer, Waltham, Mass., Cat No. 6007299) overnight (>16h) at 37° C. 5% CO2 for use in the assay.
Test compounds were first diluted to 4 mM or 0.4 mM and then serially diluted 3-fold into 10 different concentrations using DMSO. Each concentration of compound was further diluted 40-fold with phenol red-free DMEM (Life Technologies, Cat No. 31053). 2 μl of the diluted compounds were then dispensed into the HEK293-ALK2-R206H cell-containing wells of the microplates in duplicates. In this way, each compound was tested in 10 doses (3-fold serial dilution with the top concentration being 10 μM or 1 μM). Liquid handling was achieved using a Bravo Automated Liquid Handling Platform (Agilent Technologies). DMSO without compound was used as a negative control. The positive control was 1 μM LDN193189, a known bone morphogenetic protein (BMP inhibitor).
After 2-3 hours of incubation with test compound or control, the cells were lysed and signal was developed using ALPHASCREEN® SUREFIRE® SMAD1 (p-Ser463/465) cellular kinase assay kit (PerkinElmer, Cat No. TGRSM1S10K) following the manufacturer's recommended protocol. The microplates were read using Perkin Elmer ENVISION® plate reader (emission […]). The signal reflected the level of phospho-Ser/463/465-Smad1 in the lysate. The raw data were plotted using the DMSO negative and LDN193189 positive controls as the 0% and 100% inhibition, respectively. The 10-point dose response curve was used to calculate the IC50 values.
The results of this assay are shown in Table 3 in the column labeled “Cell Assay” wherein “A” represents an IC50 of less than or equal to 100 nM; “B” an IC50 of greater than 100 nM and less than or equal to 500 nM; “C” an IC50 of greater than 500 nM. Blank values in the table indicate that the particular compound was not tested in this assay.

The values below come from US11236086B2, “Substituted pyrrolopyridines as inhibitors of activin receptor-like kinase” (BLUEPRINT MEDICINES CORPORATION, priority 2017, dated 2022).

pIC50: −log10 of the molar value.

`O=C(C1CC1)N1CCN(c2ccnc3[nH]c(-c4ccc(C5(O)COC5)cc4)cc23)CC1` [Compound 283]: the pIC50 in assay [1] is not below 8.00; at human ALK2 R206H it was 6.30 to 7.00.
`CCN1CCN(c2ccc(-c3cc4c(N5CCN(C(=O)C6CC6)CC5)ccnc4[nH]3)c(Cl)c2)CC1` [Compound 456]: the pIC50 in assay [1] was not below 8.00; on human ALK2 R206H, not below 7.00.
`Cc1nc(-c2cc3c(N4CCN(C(=O)O[C@H]5C[C@H](F)C5)CC4)ccnc3[nH]2)cs1` [Compound 260]: the pIC50 in assay [1] was not below 8.00; on human ALK2 R206H, not below 7.00.
In the same order, the values of `Cn1cc(-c2cc3c(N4CCN(C(=O)C5CC(F)(F)C5)CC4)ccnc3[nH]2)cn1` [Compound 180] are not below 8.00 and 6.30 to 7.00.
As for `CC(C)OC(=O)N1CCN(c2ccnc3[nH]c(-c4cnn(C)c4)c(C#N)c23)CC1` [Compound 137], the results for the pIC50 (in assay [1]; at human ALK2 R206H) were not below 8.00 and not below 7.00, respectively.
Regarding `O=C(OC1COC1)N1CCN(c2ccnc3[nH]c(-c4cn(C(F)F)cn4)cc23)CC1` [Compound 280], the negative-log IC50 (pIC50) in assay [1] is not below 8.00; on human ALK2 R206H, not below 7.00.
Turning to `Cn1cc(-c2[nH]c3nccc(N4CCN(C(=O)O[C@H]5CCOC5)CC4)c3c2Cl)cn1` [Compound 330], the negative logarithm of the IC50 (pIC50) in assay [1] is not below 8.00; at human ALK2 R206H, not below 7.00.
Turning to `Cc1nn(C(C)C)cc1-c1cc2c(N3CCN(C(=O)OC4COC4)CC3)ccnc2[nH]1` [Compound 304], the results for the negative logarithm of the IC50 (pIC50) (in assay [1]; at human ALK2 R206H) were not below 8.00 and not below 7.00, respectively.
As to `CCOC(=O)N1CCN(c2ccnc3[nH]c(-c4cnn(C)c4)c(CO)c23)CC1` [Compound 111], the negative logarithm of the IC50 (pIC50) is not below 8.00 in assay [1] and 6.30 to 7.00 at human ALK2 R206H.
In the same order, the values of `CC(=O)N1CCc2nc(-c3cc4c(N5CCN(C(=O)OC6COC6)CC5)ccnc4[nH]3)sc2C1` [Compound 447] are not below 8.00 and not below 7.00.
Consider `Cn1cc(-c2cc3c(N4CCN(C(=O)[C@H]5CC[C@H](O)CC5)CC4)ccnc3[nH]2)cn1` [Compound 224], for which the pIC50 in assay [1] is not below 8.00; at human ALK2 R206H, less than 6.30.
Consider `Cn1cc(-c2[nH]c3nccc(N4CCN(C(=O)[C@H]5CC[C@H](C#N)CC5)CC4)c3c2Cl)cn1` [Compound 397], for which the negative logarithm of the IC50 (pIC50) in assay [1] was not below 8.00; at human ALK2 R206H, not below 7.00.
Take `Cn1cc(-c2cc3c(N4CCN(C(=O)OC5COC5)CC4)ccnc3[nH]2)nn1` [Compound 105]: the pIC50 in assay [1] was not below 8.00; at human ALK2 R206H it was 6.30 to 7.00.
For the compound `O=C(OC1COC1)N1CCN(c2ccnc3[nH]c(-c4cn[nH]c4C4CC4)cc23)CC1` [Compound 220], the pIC50 in assay [1] is 7.30 to 8.00; on human ALK2 R206H it was less than 6.30.
For `Cn1cc(-c2[nH]c3nccc(N4CCN(C(=O)O[C@@H]5CCC5(F)F)CC4)c3c2C#N)cn1` [Compound 366] the same measures were not below 8.00 and not below 7.00.
For `Cn1cc(-c2cc3c(N4CCN(C(=O)O[C@H]5CC(F)(F)C5(F)F)CC4)ccnc3[nH]2)cn1` [Compound 401], the pIC50 is not below 8.00 in assay [1] and not below 7.00 at human ALK2 R206H.
As for `CCOC(=O)N1CCN(c2ccnc3[nH]c(-c4cccnc4)cc23)CC1` [Compound 8], the pIC50 is not below 8.00 in assay [1] and 6.30 to 7.00 at human ALK2 R206H.
With `Cc1nc(-c2cc3c(N4CCN(C(=O)OC5CS(=O)(=O)C5)CC4)ccnc3[nH]2)cs1` [Compound 387], the values for the negative-log IC50 (pIC50) (in assay [1]; on human ALK2 R206H) were not below 8.00 and not below 7.00, respectively.
As to `CCOC(=O)N1CCN(c2ccnc3[nH]c(-c4cn(C)nn4)cc23)CC1` [Compound 13], the negative-log IC50 (pIC50) is not below 8.00 in assay [1] and 6.30 to 7.00 on human ALK2 R206H.
Regarding `N#Cc1c(-c2cn3c(n2)COCC3)[nH]c2nccc(N3CCN(C(=O)OC4COC4)CC3)c12` [Compound 394], the pIC50 in assay [1] was not below 8.00; on human ALK2 R206H, not below 7.00.
For `Cn1cc(-c2cc3c(N4CCN(C(=O)OC5CCC5)CC4)ccnc3[nH]2)cn1` [Compound 77], the negative-log IC50 (pIC50) in assay [1] was not below 8.00; on human ALK2 R206H, not below 7.00.
Take `CCOC(=O)N1CCN(c2ccnc3[nH]c(-c4cnn(C)c4)c(Br)c23)CC1` [Compound 341]: the negative-log IC50 (pIC50) in assay [1] is not below 8.00; on human ALK2 R206H, not below 7.00.
`CN1CCN(C(=O)COc2ccc(-c3cc4c(N5CCN(C(=O)C6CC6)CC5)ccnc4[nH]3)cc2)CC1` [Compound 464]: the negative logarithm of the IC50 (pIC50) in assay [1] was not below 8.00; on human ALK2 R206H it was 6.30 to 7.00.
Take `O=C(C1CC1)N1CCN(c2ccnc3[nH]c(-c4ccc(C5(O)CCCOC5)cc4)cc23)CC1` (centres unmarked) [Compound 385]: the pIC50 is not below 8.00 in assay [1] and not below 7.00 on human ALK2 R206H.
Consider `O=C(C1CC1)N1CCN(c2ccnc3[nH]c(-c4ccc(OC5CCC5)cc4)cc23)CC1` [Compound 273], for which the values for the pIC50 (in assay [1]; at human ALK2 R206H) were not below 8.00 and 6.30 to 7.00, respectively.
`CC(C)c1csc(-c2cc3c(N4CCN(C(=O)OC5COC5)CC4)ccnc3[nH]2)n1` [Compound 317]: the values for the negative-log IC50 (pIC50) (in assay [1]; at human ALK2 R206H) were not below 8.00 and 6.30 to 7.00, respectively.
In the same order, the values of `Cn1cc(-c2cc3c(N4CCN(C(=O)OCC(F)F)CC4)ccnc3[nH]2)cn1` [Compound 126] are not below 8.00 and not below 7.00.
For the compound `CCOC(=O)N1CCN(c2ccnc3[nH]c(-c4ncc(C)s4)cc23)CC1` [Compound 49], the values for the pIC50 (in assay [1]; at human ALK2 R206H) were not below 8.00 and 6.30 to 7.00, respectively.
Consider `O=C(C1CC1)N1CCN(c2ccnc3[nH]c(-c4ccc(N5CCN(CC(F)F)CC5)cc4)cc23)CC1` [Compound 461], for which the values for the pIC50 (in assay [1]; on human ALK2 R206H) were not below 8.00 and 6.30 to 7.00, respectively.
With `COCCOc1ccc(-c2cc3c(N4CCN(C(=O)C5CC5)CC4)ccnc3[nH]2)cc1` [Compound 286], the pIC50 in assay [1] was not below 8.00; on human ALK2 R206H, 6.30 to 7.00.
Turning to `Cn1cc(-c2cc3c(N4CCN(C(=O)O[C@H]5C[C@@H](O)C5)CC4)ccnc3[nH]2)cn1` [Compound 149], the figures for the pIC50 (in assay [1]; at human ALK2 R206H) were not below 8.00 and 6.30 to 7.00, respectively.
As to `CC(C)Oc1ccc(-c2cc3c(N4CCN(C(=O)C5CC5)CC4)ccnc3[nH]2)cc1` [Compound 194], the pIC50 in assay [1] is not below 8.00; on human ALK2 R206H it was not below 7.00.
As to `CCN1CCC(c2ccc(-c3cc4c(N5CCN(C(=O)C6CC6)CC5)ccnc4[nH]3)cc2)C(F)C1` (centres unmarked) [Compound 442], the pIC50 is not below 8.00 in assay [1] and not below 7.00 at human ALK2 R206H.
On to `Cn1cc(-c2[nH]c3nccc(N4CCN(C(=O)OC5CCC5)CC4)c3c2C#N)cn1` [Compound 200], for which the pIC50 is not below 8.00 in assay [1] and not below 7.00 on human ALK2 R206H.
Consider `Cn1cnc(-c2[nH]c3nccc(N4CCN(C(=O)OC5CC(F)(F)C5)CC4)c3c2C#N)c1` [Compound 370], for which the pIC50 is not below 8.00 in assay [1] and not below 7.00 at human ALK2 R206H.
For `Cn1cc(-c2[nH]c3nccc(N4CCN(C(=O)O[C@H]5C[C@H](F)C5)CC4)c3c2Cl)cn1` [Compound 340], the pIC50 is not below 8.00 in assay [1] and not below 7.00 on human ALK2 R206H.
In the case of `O=C(OC1COC1)N1CCN(c2ccnc3[nH]c(-c4nc(C5CC5)cs4)cc23)CC1` [Compound 313], the pIC50 is not below 8.00 in assay [1] and 6.30 to 7.00 at human ALK2 R206H.
